Measurements published in patent publication US5789434A, “Derivatives of substituted 4-biarylbutyric acid as matrix metalloprotease inhibitors” (priority 1995, dated 1998).
pIC50: −log10 of the molar value.

Tests used:
Type in all cases: biochemical
MMP-3 = molecular target: T1, MMP-3 (Homo sapiens, UniProt P08254); assay: Automated MMP Profiling Assay, MMP-3 fluorogenic; details: for pIC50: 96-well automated, P218
T1 construct: Truncated Prostromelysin-257 was expressed in a soluble form in E.coli; made in house; host or cells: E. coli
T1 sequence (P08254 100-274 limits assumed): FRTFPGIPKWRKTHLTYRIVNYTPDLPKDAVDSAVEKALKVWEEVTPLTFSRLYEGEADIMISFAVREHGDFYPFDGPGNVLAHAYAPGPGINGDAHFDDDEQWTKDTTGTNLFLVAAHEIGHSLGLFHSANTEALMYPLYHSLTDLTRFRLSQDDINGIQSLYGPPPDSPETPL
Text: This assay with each invention compound was run with the three enzymes MMP-3, MMP-9 and MMP-2 in parallel as adapted for a 96-well microtitre plate using a Hamilton A® workstation.

MMP-2 = molecular target: T2, MMP-2 (Homo sapiens, UniProt P08253); assay: Automated MMP Profiling Assay, MMP-2 fluorogenic; details: for pIC50: 96-well automated, P218, read-out: MMP-2 Fluorogenic IC50 (profiling)
T2 sequence (P08253 110-660): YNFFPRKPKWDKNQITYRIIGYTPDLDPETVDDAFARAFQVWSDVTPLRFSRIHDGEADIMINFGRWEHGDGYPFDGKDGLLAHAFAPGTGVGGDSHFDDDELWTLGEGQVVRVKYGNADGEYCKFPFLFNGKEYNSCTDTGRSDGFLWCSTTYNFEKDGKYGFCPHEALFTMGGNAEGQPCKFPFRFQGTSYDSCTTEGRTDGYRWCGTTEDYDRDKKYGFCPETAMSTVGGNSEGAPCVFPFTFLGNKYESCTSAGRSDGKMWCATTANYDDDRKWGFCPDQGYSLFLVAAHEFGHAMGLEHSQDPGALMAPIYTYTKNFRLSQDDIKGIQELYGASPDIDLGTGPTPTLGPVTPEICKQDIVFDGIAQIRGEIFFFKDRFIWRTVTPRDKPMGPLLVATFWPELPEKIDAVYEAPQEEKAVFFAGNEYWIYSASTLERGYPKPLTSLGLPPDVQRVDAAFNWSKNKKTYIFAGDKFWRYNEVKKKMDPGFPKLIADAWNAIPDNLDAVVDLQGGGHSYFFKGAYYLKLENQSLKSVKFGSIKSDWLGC

MMP-9 = molecular target: T3, MMP-9 (Homo sapiens, UniProt P14780); assay: Automated MMP Profiling Assay, MMP-9 fluorogenic; details: for pIC50: 96-well automated, P218
T3 construct: from tissue; host or cells: human polymorphonuclear leukocytes (PMN) from whole blood (New York Blood Center), PMA-stimulated supernatant
T3 sequence (P14780 107-707 limits assumed): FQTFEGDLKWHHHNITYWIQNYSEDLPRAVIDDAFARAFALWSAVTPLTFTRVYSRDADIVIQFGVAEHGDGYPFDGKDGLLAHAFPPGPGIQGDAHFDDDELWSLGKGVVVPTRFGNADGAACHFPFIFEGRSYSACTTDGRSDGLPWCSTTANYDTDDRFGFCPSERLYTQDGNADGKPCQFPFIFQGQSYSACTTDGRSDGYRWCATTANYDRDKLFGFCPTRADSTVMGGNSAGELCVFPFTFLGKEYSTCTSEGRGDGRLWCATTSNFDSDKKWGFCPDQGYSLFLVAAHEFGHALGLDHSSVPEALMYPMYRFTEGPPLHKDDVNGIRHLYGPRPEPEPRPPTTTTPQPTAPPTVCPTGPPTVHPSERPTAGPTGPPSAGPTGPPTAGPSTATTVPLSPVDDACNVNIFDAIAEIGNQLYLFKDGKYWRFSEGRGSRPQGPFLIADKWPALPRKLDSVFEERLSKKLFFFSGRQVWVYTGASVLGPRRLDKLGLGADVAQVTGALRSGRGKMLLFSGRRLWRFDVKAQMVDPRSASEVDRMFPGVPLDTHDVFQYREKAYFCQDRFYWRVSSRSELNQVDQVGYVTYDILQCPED

Row | SMILES | pIC50 (MMP-3) | pIC50 (MMP-2) | pIC50 (MMP-9) | inhibition at 5 µM (MMP-3) [%] | inhibition at 5 µM (MMP-9) [%] | inhibition at 5 µM (MMP-2; at 5 μM) [%]
1 | COC/C=C\c1ccc(-c2ccc(C(=O)CC(CCCc3ccccc3)C(=O)O)cc2)cc1 (stereo not drawn) [Example 354, [1,1'-Biphenyl]-4-butanoic acid, 4'-(3-methoxy-1-propenyl)-γ-oxo-α-(3-phenylpropyl)-, (Z)-] | 6.24 | 7.12 | 5.77 |  |  | 
2 | COCCCc1ccc(-c2ccc(C(=O)CC(CCCc3ccccc3)C(=O)O)cc2)cc1 (stereo not drawn) [Example 355, [1,1'-Biphenyl]-4-butanoic acid, 4'-(3-methoxypropyl)-γ-oxo-α-(3-phenylpropyl)-] | 6.29 | 7.05 | 5.97 |  |  | 
3 | CCCC/C=C\c1ccc(-c2ccc(C(=O)CC(CCCc3ccccc3)C(=O)O)cc2)cc1 (stereo not drawn) [Example 356, [1,1'-Biphenyl]-4-butanoic acid, 4'-(1-hexenyl)-γ-oxo-α-(3-phenylpropyl)-, (Z)-] |  | 6.73 |  | 45 | 14 | 
4 | CCCCCCc1ccc(-c2ccc(CCC(CCCc3ccccc3)C(=O)O)cc2)cc1 (stereo not drawn) [Example 357, [1,1'-Biphenyl]-4-butanoic acid, 4'-hexyl-α-(3-phenylpropyl)-] |  |  |  | 15 | 4 | 38
5 | O=C(CC(CCCc1ccccc1)C(=O)O)c1ccc(-c2ccc(/C=C\c3ccccc3)cc2)cc1 (stereo not drawn) [Example 358, [1,1'-Biphenyl]-4-butanoic acid, 4'-γ-oxo-4'-(2-phenylethenyl)-α-(3-phenylpropyl)-, (Z)-] |  | 6.91 |  | 39 | 4 | 
6 | O=C(CC(CCCc1ccccc1)C(=O)O)c1ccc(-c2ccc(CCc3ccccc3)cc2)cc1 (stereo not drawn) [Example 359, [1,1'-Biphenyl]-4-butanoic acid, 4'-γ-oxo-4'-(2-phenylethyl)-α-(3-phenylpropyl)-] | 7.08 | 7.29 |  |  | 16 | 
7 | O=C(CC(CCN1C(=O)c2ccc(OCc3ccccc3)cc2C1=O)C(=O)O)c1ccc(-c2ccc(Cl)cc2)cc1 (stereo not drawn) [Example 405, 2H-Isoindole-2-butanoic acid, α-[2-(4'-chloro[1,1'-biphenyl]-4-yl)-2-oxoethyl]-1,3-dihydro-1,3-dioxo-5-(phenylmethoxy)-] | 7.12 | 7.10 | 8.24 |  |  | 
8 | CCCOc1ccc2c(c1)C(=O)N(CCC(CC(=O)c1ccc(-c3ccc(Cl)cc3)cc1)C(=O)O)C2=O (stereo not drawn) [Example 406, 2H-Isoindole-2-butanoic acid, α-[2-(4'-chloro[1,1'-biphenyl]-4-yl)-2-oxoethyl]-1,3-dihydro-1,3-dioxo-5-propoxy-] | 7.99 | 7.77 | 8.77 |  |  | 
9 | O=C(CC(CCN1C(=O)c2cccc(OCc3ccccc3)c2C1=O)C(=O)O)c1ccc(-c2ccc(Cl)cc2)cc1 (stereo not drawn) [Example 407, 2H-Isoindole-2-butanoic acid, α-[2-(4'-chloro[1,1'-biphenyl]-4-yl)-2-oxoethyl]-1,3-dihydro-1,3-dioxo-4-(phenylmethoxy)-] | 7.16 | 7.41 | 7.44 |  |  | 
10 | O=C(CC(CCN1C(=O)c2cc3ccccc3cc2C1=O)C(=O)O)c1ccc(-c2ccc(Cl)cc2)cc1 (stereo not drawn) [Example 409, 2H-Benz[.function.]isoindole-2-butanoic acid, α-[2-(4'-chloro[1,1'-biphenyl]-4-yl)-2-oxoethyl]-1,3-dihydro-1,3-dioxo-] | 7.91 | 7.52 | 8.72 |  |  | 
11 | O=C(CC(CCN1C(=O)c2cccc3cccc(c23)C1=O)C(=O)O)c1ccc(-c2ccc(Cl)cc2)cc1 (stereo not drawn) [Example 410, 1H-Benz[de]isoquinoline-2(3H)-butanoic acid, α-[2-(4'-chloro[1,1'-biphenyl]-4-yl)-2-oxoethyl]-1,3-dioxo-] | 6.98 | 7.10 | 7.36 |  |  | 
12 | O=C(CC(CCN1C(=O)CCC1=O)C(=O)O)c1ccc(-c2ccc(Cl)cc2)cc1 (stereo not drawn) [Example 411, 1-Pyrrolidinebutanoic acid, α-[2-(4'-chloro[1,1'-biphenyl]-4-yl)-2-oxoethyl]-2,5-dioxo-] | 6.94 | 7.57 | 6.67 |  |  | 
13 | CCOc1ccc(-c2ccc(C(=O)CC(CCN3C(=O)CCC3=O)C(=O)O)cc2)cc1 (stereo not drawn) [Example 412, 1-Pyrrolidinebutanoic acid, α-[2-(4'-ethoxy[1,1'-biphenyl]-4-yl)-2-oxoethyl]-2,5-dioxo-] | 7.08 | 8.00 | 7.39 |  |  | 
14 | CC(C)(C)c1ccc2c(c1)C(=O)N(CCC(CC(=O)c1ccc(-c3ccc(Cl)cc3)cc1)C(=O)O)C2=O (stereo not drawn) [Example 414, 2H-Isoindole-2-butanoic acid, α-[2-(4'-chloro[1,1'-biphenyl]-4-yl)-2-oxoethyl]-5-(1,1-dimethylethyl)-1,3-dihydro-1,3-dioxo-] | 7.43 | 7.10 | 7.82 |  |  | 
15 | O=C(CC(CCN1C(=O)c2cc(Cl)c(Cl)cc2C1=O)C(=O)O)c1ccc(-c2ccc(Cl)cc2)cc1 (stereo not drawn) [Example 415, 2H-Isoindole-2-butanoic acid, 5,6-dichloro-α-[2-(4'-chloro[1,1'-biphenyl]-4-yl)-2-oxoethyl]-1,3-dihydro-1,3-dioxo-] | 7.92 | 7.47 | 8.92 |  |  | 
16 | Cc1ccc2c(c1)C(=O)N(CCC(CC(=O)c1ccc(-c3ccc(Cl)cc3)cc1)C(=O)O)C2=O (stereo not drawn) [Example 416, 2H-Isoindole-2-butanoic acid, α[2-(4'-chloro[1,1'-biphenyl]-4-yl)-2-oxoethyl]-1,3-dihydro-5-methyl-1,3-dioxo-] | 8.02 | 7.64 | 8.60 |  |  | 
17 | O=C(CC(CCN1C(=O)c2ccncc2C1=O)C(=O)O)c1ccc(-c2ccc(Cl)cc2)cc1 (stereo not drawn) [Example 417, 2H-Pyrrolo[3,4-c]pyridine-2-butanoic acid, α-[2-(4'-chloro[1,1'-biphenyl]-4-yl)-2-oxoethyl]-1,3-dihydro-1,3-dioxo-] | 7.49 | 8.43 | 7.92 |  |  | 
18 | O=C(CC(CCN1C(=O)c2cccc3c(Br)ccc(c23)C1=O)C(=O)O)c1ccc(-c2ccc(Cl)cc2)cc1 (stereo not drawn) [Example 418] | 6.52 | 6.38 | 7.05 |  |  | 
19 | O=C(CC(CCN1C(=O)c2cc3c(cc2C1=O)OCO3)C(=O)O)c1ccc(-c2ccc(Cl)cc2)cc1 (stereo not drawn) [Example 419, 6H-1,3-Dioxolo[4,5-.function.]isoindole-6-butanoic acid, α-[2-(4'-chloro[1,1'-biphenyl]-4-yl)-2-oxoethyl]-5,7-dihydro-5,7-dioxo-] | 8.17 | 7.51 | 9.07 |  |  | 
20 | O=C(CC(CCN1C(=O)c2ccc(O)cc2C1=O)C(=O)O)c1ccc(-c2ccc(Cl)cc2)cc1 (stereo not drawn) [Example 420, 2H-Isoindole-2-butanoic acid, α-[2-(4'chloro[1,1'-biphenyl]-4-yl)-2-oxoethyl]-1,3-dihydro-5-hydroxy-1,3-dioxo-] | 7.85 | 8.29 | 8.77 |  |  | 
21 | O=C(CC(CCN1C(=O)c2cccc(O)c2C1=O)C(=O)O)c1ccc(-c2ccc(Cl)cc2)cc1 (stereo not drawn) [Example 421, 2H-Isoindole-2-butanoic acid, α-[2-(4'chloro[1,1'-biphenyl]-4-yl)-2-oxoethyl]-1,3-dihydro-4-hydroxy-1,3-dioxo-] | 7.92 | 9.12 | 8.77 |  |  | 
